Laboratory results published in EPA's ToxRefDB 2.

Legend:
[1] = system: rat; conditions: Carcinogenicity, fischer, Oral, Feed, dose end: 103 week, group: systemic
[2] = system: rat; conditions: Subchronic oral toxicity in rodents, fischer, Feed, dose end: 13 week, group: systemic
[3] = system: mouse; conditions: Carcinogenicity, b6c3f1, Oral, Feed, dose end: 103 week, group: systemic
[4] = system: mouse; conditions: Subchronic oral toxicity in rodents, b6c3f1, Feed, dose end: 13 week, group: systemic
[5] = system: rabbit; conditions: Prenatal developmental toxicity study, Dermal, Topical, dose end: 16 GD, group: maternal
[6] = system: mouse; conditions: Prenatal developmental toxicity study, CD-1, Dermal, Topical, dose end: 13 GD, group: maternal
[7] = system: dog; conditions: Sub-acute repeat dose toxicity; beagle; Oral; Capsule; dose end: 1 month; group: systemic; systemic / clinical chemistry / triglycerides / triglycerides
[8] = system: rat; conditions: Prenatal developmental toxicity study, sprague dawley, Oral, Gavage/Intubation, dose end: 17 GD
[9] = system: rat; conditions: Fertility (Segment I), sprague dawley, Oral, Gavage/Intubation, dose end: 7 GD
[10] = system: rat; conditions: Sub-acute repeat dose toxicity, sprague dawley, Oral, Gavage/Intubation, dose end: 31 day, group: systemic
[11] = system: rat; conditions: Fertility (Segment I), sprague dawley, Oral, Gavage/Intubation, dose end: 2 week, group: parental
[12] = system: rat; conditions: Chronic toxicity; sprague dawley; Oral; Gavage/Intubation; dose end: 6 month; group: systemic; systemic / clinical chemistry / sodium / sodium + systemic / clinical chemistry / bilirubin / total bilirubin + systemic / clinical …
[13] = system: rat; conditions: Fertility (Segment I), sprague dawley, Oral, Gavage/Intubation, dose end: 7 GD; remark: listed apart in the source
[14] = system: rabbit; conditions: Prenatal developmental toxicity study; new zealand white; Oral; Gavage/Intubation; dose end: 19 GD; group: maternal; systemic / in life observation / body weight / body weight gain
[15] = system: rat; conditions: Prenatal developmental toxicity study, sprague dawley, Oral, Gavage/Intubation, dose end: 17 GD, group: maternal
[16] = system: rabbit; conditions: Prenatal developmental toxicity study; new zealand white; Oral; Gavage/Intubation; dose end: 19 GD; group: maternal; systemic / in life observation / body weight / body weight + systemic / in life observation / body weight / body weight gain + systemic / in…
[17] = system: dog; conditions: Chronic toxicity, beagle, Oral, Feed, dose end: 8 week, group: systemic
[18] = system: rat; conditions: Prenatal developmental toxicity study, sprague dawley, Oral, Gavage/Intubation, dose end: 15 GD
[19] = system: mouse; conditions: Carcinogenicity; cd1; Oral; Feed; dose end: 102 week; group: systemic; systemic / organ weight / liver / absolute + systemic / organ weight / liver / relative to body weight
[20] = system: dog; conditions: Subchronic oral toxicity in nonrodent, beagle, Feed, dose end: 13 week, group: systemic, systemic / in life observation / body weight / body weight + systemic / in life observation / body weight / body weight gain + systemic / in…
[21] = system: mouse; conditions: Carcinogenicity, cd1, Oral, Feed, dose end: 8 week, group: systemic
[22] = system: dog; conditions: Chronic toxicity; beagle; Oral; Feed; dose end: 52 week; group: systemic; systemic / organ weight / thyroid gland / absolute + systemic / organ weight / thyroid gland / relative to body weight + systemic / …
[23] = system: rat; conditions: Combined chronic toxicity/carcinogenicity, sprague dawley, Oral, Feed, dose end: 104 week, group: systemic
[24] = system: rat; conditions: Subchronic oral toxicity in rodents, sprague dawley, Feed, dose end: 90 day, group: systemic
[25] = systemic / in life observation / body weight / body weight gain
[26] = systemic / in life observation / body weight / body weight gain + systemic / pathology microscopic / eye / cataract + systemic / pathology …
[27] = systemic / in life observation / body weight / body weight + systemic / pathology microscopic / bone / osteopetrosis + systemic / pathology …
[28] = systemic / pathology microscopic / bone / osteopetrosis + systemic / in life observation / body weight / body weight
[29] = systemic / pathology microscopic / bone marrow / myelofibrosis + systemic / pathology microscopic / mammary gland / cyst + systemic / …
[30] = systemic / pathology microscopic / liver / adenoma + systemic / pathology microscopic / pituitary gland / adenoma + systemic / pathology …
[31] = systemic / in life observation / mortality / mortality + systemic / pathology microscopic / adrenal gland / vacuolization cytoplasmic + …
[32] = systemic / pathology microscopic / uterus / hyperplasia
[33] = systemic / in life observation / body weight / body weight gain + systemic / in life observation / clinical signs / erythema + systemic / in…
[34] = group: developmental, systemic / in life observation / body weight / fetal weight
[35] = group: maternal, systemic / in life observation / clinical signs / piloerection
[36] = group: maternal, reproductive / reproductive performance / estrous cycle / abnormal + reproductive / reproductive performance / estrous cycle / corpora lutea…
[37] = group: parental, systemic / in life observation / clinical signs / fur (altered appearance) + systemic / in life observation / clinical signs / salivation
[38] = group: parental, systemic / in life observation / clinical signs / fur (altered appearance) + systemic / in life observation / clinical signs / salivation + …
[39] = systemic / clinical chemistry / albumin / albumin + systemic / clinical chemistry / phosphorus / phosphorus + systemic / clinical chemistry…
[40] = systemic / hematology / reticulocyte / reticulocyte + systemic / pathology microscopic / lung / histiocytosis + systemic / hematology / …
[41] = systemic / in life observation / body weight / body weight + systemic / in life observation / body weight / body weight gain + systemic / in…
[42] = group: parental, systemic / in life observation / clinical signs / piloerection
[43] = group: parental, systemic / in life observation / clinical signs / piloerection + systemic / in life observation / body weight / body weight + systemic / in …
[44] = reproductive / reproductive performance / postimplantation loss / postimplantation loss + systemic / in life observation / body weight / …
[45] = systemic / clinical chemistry / alanine aminotransferase (alt/sgpt) / alanine aminotransferase (alt/sgpt) + systemic / clinical chemistry / …
[46] = group: developmental, developmental / developmental malformation / bone / short
[47] = group: maternal, systemic / in life observation / mortality / mortality + reproductive / reproductive performance / resorptions / resorptions
[48] = systemic / organ weight / liver / relative to body weight
[49] = systemic / organ weight / liver / relative to body weight + systemic / clinical chemistry / alkaline phosphatase (alp/alk) / alkaline …
[50] = systemic / clinical chemistry / alanine aminotransferase (alt/sgpt) / alanine aminotransferase (alt/sgpt)
[51] = systemic / clinical chemistry / albumin-globulin ratio / albumin-globulin ratio + systemic / clinical chemistry / phosphorus / phosphate
[52] = systemic / hematology / erythrocyte (rbc) count differential / erythrocyte (rbc) + systemic / hematology / leukocyte (wbc) count …

## C[C@H]1CCCC(=O)CCC/C=C/c2cc(O)cc(O)c2C(=O)O1 [Zearalenone]
[1]; [25]
  LOAEL: 2.5 mg/kg/day
[1]; [26]
  LEL: 1.25 mg/kg/day
  NEL: < 1.25 mg/kg/day
  NOAEL: 1.25 mg/kg/day
[2]; [27]
  LOAEL: > 150 mg/kg/day
  NOAEL: ≥ 150 mg/kg/day
[2]; [28]
  LEL: 1.5 mg/kg/day
  NEL: < 1.5 mg/kg/day
[3]; [29]
  LEL: 7.5 mg/kg/day
  NEL: < 7.5 mg/kg/day
[3]; [30]
  LOAEL: > 15 mg/kg/day
  NOAEL: ≥ 15 mg/kg/day
[4]; [31]
  LOAEL: > 450 mg/kg/day
  NOAEL: ≥ 450 mg/kg/day
[4]; [32]
  LEL: 4.5 mg/kg/day
  NEL: < 4.5 mg/kg/day

## CCCCCCCCCCC(C)c1ccc(S(=O)(=O)O)cc1 (configuration not stated) [Alkylbenzenesulfonate, linear]
[5]; [25]
  LEL: 9 mg/kg/day
[5]; [33]
  LOAEL: > 90 mg/kg/day
  NEL: 0.9 mg/kg/day
  NOAEL: ≥ 90 mg/kg/day
[6]; reproductive / offspring survival early / dead fetuses / dead fetuses + systemic / in life observation / clinical signs / irritability
  LEL: 50 mg/kg/day
[6]; systemic / in life observation / body weight / body weight gain + systemic / in life observation / clinical signs / erythema + reproductive…
  LOAEL: 500 mg/kg/day
[6]; [33]
  NEL: 5 mg/kg/day
  NOAEL: 50 mg/kg/day

## COc1ccc2cc(S(=O)(=O)N[C@H](CC(=O)N[C@H](Cc3ccc(CN4[C@H](C)CCC[C@@H]4C)cc3)C(=O)N(C)C(C)C)c3ccc4c(c3)OCO4)ccc2c1.Cl
[7]
  LEL: 10 mg/kg/day
  LOAEL: 10 mg/kg/day
  NEL: < 10 mg/kg/day
  NOAEL: < 10 mg/kg/day
[8]; [34]
  LEL: 120 mg/kg/day
  LOAEL: 120 mg/kg/day
  NEL: 60 mg/kg/day
  NOAEL: 60 mg/kg/day
[8]; [35]
  LEL: 30 mg/kg/day
  NEL: < 30 mg/kg/day
[8]; group: maternal, systemic / in life observation / clinical signs / piloerection + systemic / in life observation / food consumption / food consumption
  LOAEL: 60 mg/kg/day
[8]; group: maternal, systemic / in life observation / clinical signs / piloerection + systemic / in life observation / food consumption / food consumption + …
  NOAEL: 30 mg/kg/day
[9]; [36]
  LEL: 180 mg/kg/day
  LOAEL: > 180 mg/kg/day
  NEL: 60 mg/kg/day
  NOAEL: ≥ 180 mg/kg/day
[9]; [37]
  LEL: 20 mg/kg/day
  NEL: < 20 mg/kg/day
[9]; [38]
  LOAEL: > 180 mg/kg/day
  NOAEL: ≥ 180 mg/kg/day
[10]; [39]
  LOAEL: 60 mg/kg/day
  NOAEL: 20 mg/kg/day
[10]; [40]
  LEL: 20 mg/kg/day
  NEL: < 20 mg/kg/day
[11]; [41]
  LOAEL: 150 mg/kg/day
  NEL: 20 mg/kg/day
  NOAEL: 60 mg/kg/day
[11]; systemic / in life observation / clinical signs / salivation
  LEL: 60 mg/kg/day
[12]
  LEL: 10 mg/kg/day
  LOAEL: > 100 mg/kg/day
  NEL: < 10 mg/kg/day
  NOAEL: ≥ 100 mg/kg/day
[13]; [36]
  LEL: 180 mg/kg/day
  LOAEL: 180 mg/kg/day
  NEL: 60 mg/kg/day
  NOAEL: 60 mg/kg/day
[13]; [42]
  LEL: 20 mg/kg/day
  NEL: < 20 mg/kg/day
[13]; [43]
  LOAEL: 180 mg/kg/day
  NOAEL: 60 mg/kg/day
[14]
  LEL: 120 mg/kg/day
  LOAEL: > 120 mg/kg/day
  NEL: 60 mg/kg/day
  NOAEL: ≥ 120 mg/kg/day
[15]; reproductive / reproductive performance / postimplantation loss / postimplantation loss
  LEL: 60 mg/kg/day
[15]; [44]
  LOAEL: > 180 mg/kg/day
  NEL: 20 mg/kg/day
  NOAEL: ≥ 180 mg/kg/day
[16]
  LEL: 100 mg/kg/day
  LOAEL: 100 mg/kg/day
  NEL: 50 mg/kg/day
  NOAEL: 50 mg/kg/day

## C=CCC1=C(C)[C@@H](OC(=O)[C@@H]2[C@@H](C=C(C)C)C2(C)C)CC1=O [S-Bioallethrin]
[17]; [45]
  LOAEL: 63.2 mg/kg/day
  NEL: 4.5 mg/kg/day
  NOAEL: 19.5 mg/kg/day
[17]; systemic / organ weight / liver / absolute + systemic / organ weight / liver / relative to body weight
  LEL: 19.5 mg/kg/day
[18]; [46]
  LEL: 50 mg/kg/day
  LOAEL: 50 mg/kg/day
  NEL: < 50 mg/kg/day
  NOAEL: < 50 mg/kg/day
[18]; group: maternal, systemic / in life observation / mortality / mortality
  LOAEL: 195 mg/kg/day
[18]; [47]
  LEL: 195 mg/kg/day
  NEL: 125 mg/kg/day
  NOAEL: 125 mg/kg/day
[19]
  LEL: 214 mg/kg/day
  LOAEL: > 214 mg/kg/day
  NEL: 41.9 mg/kg/day
  NOAEL: ≥ 214 mg/kg/day
[20]
  LEL: 90.5 mg/kg/day
  LOAEL: 90.5 mg/kg/day
  NEL: 38.5 mg/kg/day
  NOAEL: 38.5 mg/kg/day
[21]; [48]
  LEL: 420 mg/kg/day
  LOAEL: 420 mg/kg/day
[21]; [49]
  NEL: 229 mg/kg/day
  NOAEL: 229 mg/kg/day
[22]
  LEL: 2.7 mg/kg/day
  LOAEL: 13.7 mg/kg/day
  NEL: < 2.7 mg/kg/day
  NOAEL: 2.7 mg/kg/day
[23]; [50]
  LEL: 7.2 mg/kg/day
  LOAEL: 82.6 mg/kg/day
  NEL: < 7.2 mg/kg/day
[23]; systemic / clinical chemistry / alanine aminotransferase (alt/sgpt) / alanine aminotransferase (alt/sgpt) + systemic / pathology microscopic…
  NOAEL: 27 mg/kg/day
[24]; [51]
  LEL: 20.6 mg/kg/day
  NEL: < 20.6 mg/kg/day
[24]; [52]
  LOAEL: 36.6 mg/kg/day
  NOAEL: 18.5 mg/kg/day
